Reference: US20210255184A1, “Biosensor Device and Methods” (The New Zealand Institute for Plant and Food Research …, priority 2018, published 2021)

What was measured:
[1] = molecular target: T1, Orco (Drosophila melanogaster, UniProt Q9VNB5); assay: GFET sensor, Orco liposomes (control); type: biochemical; conditions: Orco only liposomes
T1 construct: his-tag; made in house; host or cells: baculovirus-infected Sf9 cells
T1 sequence (Q9VNB5 1-486): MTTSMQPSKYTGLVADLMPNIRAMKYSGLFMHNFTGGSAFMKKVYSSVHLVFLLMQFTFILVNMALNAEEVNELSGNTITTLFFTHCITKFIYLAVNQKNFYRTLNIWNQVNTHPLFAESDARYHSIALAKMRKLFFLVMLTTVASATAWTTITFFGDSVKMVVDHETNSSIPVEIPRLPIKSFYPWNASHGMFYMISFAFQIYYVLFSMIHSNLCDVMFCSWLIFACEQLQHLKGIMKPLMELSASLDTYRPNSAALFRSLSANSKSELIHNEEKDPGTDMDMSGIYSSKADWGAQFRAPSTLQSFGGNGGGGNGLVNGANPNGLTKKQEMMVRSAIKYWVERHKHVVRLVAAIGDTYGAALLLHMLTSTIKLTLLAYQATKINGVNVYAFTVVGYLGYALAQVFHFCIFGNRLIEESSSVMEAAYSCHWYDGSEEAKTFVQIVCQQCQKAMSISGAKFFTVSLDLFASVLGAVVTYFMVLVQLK
Description: (§1) The OR liposomes were functionalised onto the graphene surface via a non-covalent route using PBASE as the molecular linker as shown in FIG. 13. The OR liposomes were diluted at 1:10 ratio with 1×PBS (pH7.4). The cleaned GFETs were immersed in 1 mM PBASE solution in methanol for 1 hour. The devices were washed three times in methanol and subsequently washed three times in 1×PBS to remove the excess PBASE and residual methanol in the channel respectively. The OR liposomes were diluted 1:10 with 1×PBS (pH 7.4) and 100 μL of the OR dilution was placed in the graphene channel and incubated at room temperature for one hour in a closed petri dish. After OR liposome functionalization, the devices were washed in 1×PBS for 10 s before measurements.
(§2) The OR liposome immobilised GFET device with a PDMS well mounted on it was placed onto the probe station and the source and drain connections were made by micromanipulators. 100 μl of PBS containing 1% dimethyl sulfoxide (DMSO) was added to the well and the Ag/AgCl standard electrode was placed into the buffer. The stock solution of ligands at 100 mM concentrations were prepared by dissolving them in DMSO as they are not stable in aqueous buffer. The stock solution was stored at 4° C. The ligand solution for sensing was prepared by diluting the stock solution in 1×PBS buffer containing 1% DMSO to set concentrations from 10 fM to 100 pM. […]

[2] = GFET sensor, empty liposomes (control); type: biochemical
Description: as §1, §2

Row | SMILES | sensor response to target ligand [1] | sensor response to target ligand [2]
1 | CCCCCC(=O)OC [methyl hexanoate] | lack of response | lack of response
2 | COC(=O)c1ccccc1O [methyl salicylate] | lack of response | lack of response
